# Assay results taken from patent US20110009429A1, “HETEROCYCLIC COMPOUNDS AS INHIBITORS OF CXCR2” (priority 2008, published 2011).
# pIC50: −log10 of the molar value.
# Biological target: T1, human CXCR2 receptor (Homo sapiens, UniProt P25025)
# T1 construct: purchased Biosignal Packard Inc; host or cells: CHO-K1 membranes
# T1 sequence (P25025 1-360): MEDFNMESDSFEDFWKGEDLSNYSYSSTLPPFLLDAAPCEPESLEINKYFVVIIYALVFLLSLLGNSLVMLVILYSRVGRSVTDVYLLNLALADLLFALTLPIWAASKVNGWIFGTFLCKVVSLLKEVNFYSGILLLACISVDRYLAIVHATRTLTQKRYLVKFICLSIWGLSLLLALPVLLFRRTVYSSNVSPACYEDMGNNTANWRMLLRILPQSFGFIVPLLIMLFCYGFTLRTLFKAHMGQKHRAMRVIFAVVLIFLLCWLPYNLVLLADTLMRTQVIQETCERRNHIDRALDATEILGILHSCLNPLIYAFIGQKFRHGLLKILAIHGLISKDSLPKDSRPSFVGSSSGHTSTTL
# Test: [35S]-GTPγS binding assay for human CXCR2 receptor using SPA technology
# Type: biochemical
# Details: CHO-K1 membranes expressing human CXCR2 receptors; 100 nM IL-8 stimulated [35S]GTPγS binding; read-out: IC50 values in the [35S]-GPTγS binding assay
# Text: [^35S]-GTPγS Binding Assay for Human CXCR2 Receptor Using SPA Technology
# [^35S]-GTPγS (with specific activity 1082 Ci/mmol) and wheat germ agglutinin poly vinyl toluene scintillation proximity beads are purchased from Amersham Pharmacia Biotech. The Chinese hamster ovary cell (CHO-K1) membranes expressing human CXCR2 receptors are purchased from Biosignal Packard Inc. All other chemicals are of analytical grade. White non-binding surface 96 well Optiplate™ microplates are obtained from Packard. Recombinant human IL-8 is synthesised, cloned and expressed in Escherichia coli as described previously (Lindley I, et al., Proc. Natl. Acad. Sci., 1988, 85(23):9199). The assay is performed in duplicate in 96 well Optiplate™ microplate in a final volume of 250 μl per well. Compounds are diluted in DMSO (0.5% final concentration) and incubated in 20 mM HEPES buffer pH 7.4 containing 10 mM MgCl2, 100 mM NaCl, 1 mM EDTA plus 100 nM IL-8, 50 μM GDP and 500 pM [^35S]GTPγS per well. SPA beads (1 mg/well final concentration) were pre-mixed with the membranes (10 μg/well final concentration) in assay buffer: 20 mM HEPES buffer pH 7.4 containing 10 mM MgCl2, 100 mM NaCl, 1 mM EDTA. The bead membrane mixture is added to each well, plates are sealed and incubated at room temperature for 60 minutes. The plate is centrifuged and read on Packard TopCount™ scintillation counter, program [^35S dpm] for 1 min/well. Data are expressed as the % response to 100 nM IL-8 minus basal.
row,pIC50,SMILES
1,5.53,"Cc1cc2nc(CCc3ccccc3F)cc(O)n2n1 [Example 1, 5-[2-(2-Fluoro-phenyl)-ethyl]-2-methyl-pyrazolo[1,5-a]pyrimidin-7-ol]"
2,6.18,"Oc1cc(CCc2ccccc2Cl)nc2cc(Cc3ccccc3)nn12 [Example 4, 2-Benzyl-5-[2-(2-chloro-phenyl)-ethyl]-pyrazolo[1,5-a]pyrimidin-7-ol]"
3,6.66,"Oc1cc(CCc2cccc(F)c2F)nc2cc(-c3ccco3)nn12 [Example 7, 5-[2-(2,3-Difluoro-phenyl)-ethyl]-2-furan-2-yl-pyrazolo[1,5-a]pyrimidin-7-ol]"
4,5.31,"Cc1cc2nc(COc3ccccc3Cl)cc(O)n2n1 [Example 10, 5-(2-Chloro-phenoxymethyl)-2-methyl-pyrazolo[1,5-a]pyrimidin-7-ol]"
5,5.42,"Oc1cc(COc2c(F)cccc2F)nc2cc(-c3ccco3)nn12 [Example 14, 5-(2,6-Difluoro-phenoxymethyl)-2-furan-2-yl-pyrazolo[1,5-a]pyrimidin-7-ol]"
6,6.00,"Oc1cc(COc2cccnc2Cl)nc2cc(-c3ccco3)nn12 [Example 17, 5-(2-Chloro-pyridin-3-yloxymethyl)-2-furan-2-yl-pyrazolo[1,5-a]pyrimidin-7-ol]"
7,5.76,"Oc1cc(COc2cccc(F)c2F)nc2cc(-c3ccco3)nn12 [Example 22, 5-(2,3-Difluoro-phenoxymethyl)-2-furan-2-yl-pyrazolo[1,5-a]pyrimidin-7-ol]"
8,5.75,"Oc1cc(COc2ccccc2Cl)nc2cc(-c3ccco3)nn12 [Example 23, 5-(2-Chloro-phenoxymethyl)-2-furan-2-yl-pyrazolo[1,5-a]pyrimidin-7-ol]"
